Assay type in all cases: in vivo, dd Male mice
The test system of assay [1] is mice. In words: Muscular Relaxing Effect: Traction Test. Conditions: Mus musculus, oral, hind legs on wire within 5 seconds, maximum response over 15-180 minutes, Litchfield Wilcoxon method, read-out: ED50 Values, T.T (Traction Test). As to the method:
(§1) (1) Muscular Relaxing Effect:
(§2) dd Male mice weighing 18 to 22 g, one group consisting of ten animals were orally given the compounds (I) to (III) each suspended in a 0.2% carboxymethylcellulose solution in a dosage of 0.25 ml/10 g per body weight. Mephenesin and 5-(o-chlorobenzyl)-2-oxazoline were used as active placebos. The experiment was carried out according to the methods (a) to (c) as described below, and the ED50 values were calculated by the Litchfield Wilcoxon method, based on the maximum response in each dosage which was measured at intervals of 15, 30, 45, 60, 90, 120, 150 and 180 minutes after the administration of each of the test compounds.

Assay [2] deals with mice. In words: Analgetic Effect on Acetic Acid-Induced Writhing Method. Conditions: Mus musculus, oral, 30 minutes before intraperitoneal 0.6% acetic acid, writhing within 20 minutes, Litchfield Wilcoxon method. The procedure: (2) Analgetic Effect on Acetic Acid-Induced Writhing Method:
dd Male mice weighing 18 to 22 g, each group consisting of ten animals were given an intraperitoneal injection of 0.6% acetic acid in a dosage of 0.1 ml/10 g per body weight. The number of writhing syndromes occurring within 20 minutes after the injection was observed. Thereafter, the mice were orally given the test compounds suspended in a 0.2% carboxymethylcellulose solution 30 minutes before the injection of acetic acid. The inhibitory percentage was estimated in comparison with a control in which only a 0.2% carboxymethylcellulose solution was given, and the ED50 values were calculated by the Litchfield Wilcoxon method.

Assay [3] has as its system mice. The assay is described as follows: Muscular Relaxing Effect: Inclined Plane Test. Conditions: Mus musculus, oral, veneer inclined at 30 degrees and wire network at 60 degrees, maximum response over 15-180 minutes, Litchfield Wilcoxon method, read-out: ED50 Values, I.P (Inclined Plane Test). As to the method: as §1, §2
Mice were placed on veneer inclined at an angle of 30 degrees and on a wire network inclined at an angle of 60 degrees of which one mesh was 5 mm square, and the mice sliding down were considered as positive in comparison with their normal behavior.

Assay [4] deals with mice. The assay is described as follows: Muscular Relaxing Effect: Rotarod Method. Conditions: Mus musculus, oral, falling within 3 minutes from rod of 3 cm diameter at 10 rpm, maximum response over 15-180 minutes, Litchfield Wilcoxon method, read-out: ED50 Values, R.R (Rotarod Method). The procedure:
as §1, §2
Mice were placed on Rotar Load (made by Natsume Seisakusho Co., Ltd.) having a diameter of 3 cm and rotating at a speed of 10 rpm, and their falling (occurring within 3 minutes) was observed.
For orientation: The rotarod test checks motor coordination on a turning rod.

As usually defined, the ED50 is the midpoint of the dose-response relation.

For the compound `O=C1NCC(Cc2ccccc2Cl)O1` (centres unmarked) [Compound A, 5-(o-Chlorobenzyl)-2-oxazolidone, reference compound], the ED50 turned out to be 390 mg/kg in the assay with mice [1], 40 mg/kg with mice [2], 330 mg/kg in the assay on mice [3] and 210 mg/kg with mice [4].
Regarding `O=C1NCC(CCc2ccccc2)O1` (centres unmarked) [Compound I, 5-Phenethyl-2-oxazolidone], the ED50 amounted to 217 mg/kg in the assay with mice [1], 261 mg/kg with mice [3] and 196 mg/kg in the assay with mice [4].
Regarding `O=C1NCC(CCc2ccccc2F)O1` (centres unmarked) [Compound II, 5-(o-Fluorophenethyl)-2-oxazolidone], the figures for the ED50 with mice [1], with mice [3] and in the assay with mice [4] were 230 mg/kg, 297 mg/kg and 194 mg/kg, respectively.
Regarding `O=C1NCC(CCc2ccccc2Cl)O1` (centres unmarked) [Compound III, 5-(o-Chlorophenethyl)-2-oxazolidone], the ED50 in the assay on mice [1] worked out at 225 mg/kg; in the assay with mice [2], 36 mg/kg; in the assay with mice [3], 268 mg/kg; with mice [4], 182 mg/kg.
`Cc1ccccc1OCC(O)CO` (centres unmarked) [Mephenesin, reference compound]: the median effective dose (ED50) in the assay on mice [1] was 460 mg/kg; in the assay on mice [3], 470 mg/kg.
`Cc1c(N(C)C)c(=O)n(-c2ccccc2)n1C` [Aminopyrine]: in the assay with mice [2], the 50% effective dose (ED50) worked out at 64 mg/kg.

The values are drawn from patent publication US4236012A, “5-Phenethyl-2-oxazolidone derivatives and a process for producing the same” (Nippon Chemiphar Company, Limited, priority 1978, dated 1980).
